From the supplement of paper PMC10307832

Legend:
Experiment in all cases: relative viability (nuclei count vs DMSO), 5 days (fraction); higher = more cells survive
[1] = compound: OCc1c[nH]c2ccccc12 [Indole-3-carbinol] + CS(=O)(=O)CCNCc1ccc(-c2ccc3ncnc(Nc4ccc(OCc5cccc(F)c5)c(Cl)c4)c3c2)o1 [Lapatinib] (partner 2 µM)
Outline: (§1)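 One day after seeding in 1536-well plates, lung cancer cell lines were dosed by pin tool. Dosing was either single-drug or a fixed anchor-drug dose plus five library-drug doses (not always all listed) in √10 steps. After 5 days, nuclei were stained in one fix-and-stain step and counted on 4× images, and relative viability is the nuclei count of treated wells over that of vehicle wells, given as the median of duplicate plates.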

[2] = compound: OCc1c[nH]c2ccccc12 [Indole-3-carbinol] + Cc1nc(NC(=O)N2CCC[C@H]2C(N)=O)sc1-c1ccnc(C(C)(C)C(F)(F)F)c1 [Alpelisib] (partner 2 µM)
Outline: as §1

[3] = compound: OCc1c[nH]c2ccccc12 [Indole-3-carbinol] + Cc1nc(Nc2ncc(C(=O)Nc3c(C)cccc3Cl)s2)cc(N2CCN(CCO)CC2)n1 [Dasatinib] (partner 0.075 µM)
Outline: as §1

[4] = compound: OCc1c[nH]c2ccccc12 [Indole-3-carbinol] + N=C(N)NC(=N)NCCc1ccccc1 [Phenformin] (partner 250 µM)
Outline: as §1

[5] = compound: OCc1c[nH]c2ccccc12 [Indole-3-carbinol] + NC(=O)Nc1cc(-c2cccc(F)c2)sc1C(=O)N[C@H]1CCCNC1 [AZD7762] (partner 0.2 µM)
Outline: as §1

| Cell Line | relative viability ([1]; first compound 0.253 µM) | relative viability ([1]; first compound 0.8 µM) | relative viability ([1]; first compound 2.53 µM) | relative viability ([1]; first compound 8 µM) | relative viability ([2]; first compound 0.253 µM) | relative viability ([2]; first compound 0.8 µM) | relative viability ([2]; first compound 2.53 µM) | relative viability ([2]; first compound 8 µM) | relative viability ([3]; first compound 0.253 µM) | relative viability ([3]; first compound 0.8 µM) | relative viability ([3]; first compound 2.53 µM) | relative viability ([3]; first compound 8 µM) | relative viability ([4]; first compound 0.253 µM) | relative viability ([4]; first compound 0.8 µM) | relative viability ([4]; first compound 2.53 µM) | relative viability ([4]; first compound 8 µM) | relative viability ([5]; first compound 0.253 µM) | relative viability ([5]; first compound 0.8 µM) | relative viability ([5]; first compound 2.53 µM) | relative viability ([5]; first compound 8 µM) |
| --- | --- | --- | --- | --- | --- | --- | --- | --- | --- | --- | --- | --- | --- | --- | --- | --- | --- | --- | --- | --- |
| NCI-H727 | 0.75 | 0.699 | 0.782 | 0.769 | 0.583 | 0.562 | 0.535 | 0.603 | 0.365 | 0.408 | 0.294 | 0.306 | 0.532 | 0.502 | 0.458 | 0.673 | 0.664 | 0.834 | 0.579 | 0.551 |
| NCI-H838 | 1.09 | 0.805 | 0.959 | 0.949 | 1.04 | 1.05 | 1.01 | 0.975 | 0.27 | 0.31 | 0.297 | 0.295 | 0.607 | 0.526 | 0.735 | 0.553 | 1.05 | 0.84 | 0.975 | 0.883 |
| NCI-H1355 | 1.08 | 0.981 | 0.975 | 0.887 | 0.809 | 0.875 | 0.766 | 0.672 | 0.677 | 0.886 | 0.672 | 0.737 | 0.48 | 0.455 | 0.435 | 0.462 | 0.859 | 0.806 | 0.799 | 0.778 |
| NCI-H1395 | 1.04 | 0.873 | 0.931 | 0.829 | 1.31 | 0.984 | 0.983 | 1.02 | 0.386 | 0.392 | 0.458 | 0.413 | 0.434 | 0.405 | 0.432 | 0.457 | 0.404 | 0.41 | 0.379 | 0.399 |
| NCI-H1437 | 0.818 | 0.868 | 0.781 | 0.761 | 0.928 | 1.04 | 0.937 | 0.811 | 0.386 | 0.445 | 0.35 | 0.541 | 0.308 | 0.323 | 0.29 | 0.448 | 1.21 | 1.22 | 1.15 | 1.09 |
| NCI-H1651 | 0.619 | 0.69 | 0.921 | 0.704 | 0.744 | 0.97 | 0.954 | 0.895 | 0.412 | 0.387 | 0.443 | 0.368 | 0.287 | 0.349 | 0.315 | 0.424 | 0.448 | 0.441 | 0.438 | 0.437 |
| NCI-H1666 | 0.76 | 0.584 | 0.581 | 0.7 | 0.804 | 0.998 | 0.906 | 0.916 | 0.898 | 0.835 | 0.886 | 0.805 | 0.592 | 0.515 | 0.582 | 0.558 | 0.914 | 0.743 | 0.827 | 0.739 |
| NCI-H1734 | 0.979 | 1.02 | 1.04 | 0.955 | 0.692 | 0.725 | 0.719 | 0.674 | 0.441 | 0.458 | 0.542 | 0.399 | 0.406 | 0.394 | 0.34 | 0.333 | 0.519 | 0.601 | 0.551 | 0.512 |
| NCI-H1755 | 1.06 | 0.978 | 1.07 | 1.03 | 0.97 | 0.935 | 0.907 | 0.886 | 0.441 | 0.456 | 0.706 | 0.364 | 0.645 | 0.594 | 0.636 | 0.625 | 0.463 | 0.42 | 0.5 | 0.42 |
| NCI-H1792 | 0.913 | 0.945 | 0.903 | 0.93 | 0.713 | 0.68 | 0.77 | 0.673 | 0.823 | 1.05 | 0.845 | 0.737 | 0.191 | 0.26 |  | 0.194 | 0.734 | 0.786 | 0.901 | 0.77 |
| NCI-H1793 | 1.18 | 0.621 | 0.702 | 0.623 | 0.779 | 0.768 | 0.649 | 0.754 | 0.433 | 0.422 | 0.435 | 0.394 | 0.438 | 0.409 | 0.499 | 0.339 | 0.424 | 0.468 | 0.507 | 0.455 |
| NCI-H1915 | 1.01 | 0.968 | 0.993 | 0.972 | 1.05 | 1.05 | 1.07 | 1.03 | 0.285 | 0.311 | 0.328 | 0.291 | 0.383 | 0.365 | 0.368 | 0.354 | 0.655 | 0.625 | 0.767 | 0.737 |
| NCI-H1944 | 0.856 | 0.606 | 0.922 | 0.843 | 0.871 | 0.805 | 0.725 | 0.822 | 0.207 | 0.192 | 0.233 | 0.232 | 0.202 | 0.195 | 0.202 | 0.199 | 0.517 | 0.441 | 0.509 | 0.54 |
| NCI-H1975 | 0.966 | 0.847 | 0.936 | 0.876 | 0.635 | 0.734 | 0.736 | 0.583 | 0.376 | 0.426 | 0.329 | 0.35 | 0.391 | 0.413 | 0.419 | 0.417 | 0.624 | 0.79 | 0.764 | 0.613 |
| NCI-H1993 | 0.827 | 0.839 | 0.791 | 0.773 | 0.723 | 0.663 | 0.631 | 0.674 | 0.762 | 0.619 | 0.662 | 0.605 | 0.516 | 0.523 | 0.516 | 0.549 | 0.827 | 0.876 | 0.691 | 0.843 |
| NCI-H2085 | 0.855 | 0.789 | 0.8 | 0.828 | 0.905 | 1.06 | 1.05 | 0.854 | 0.259 | 0.225 | 0.256 | 0.262 | 0.684 | 0.85 | 0.787 | 0.624 | 0.965 | 1.01 | 1.05 | 0.893 |
